Results on 45 compounds are retold here after PubChem BioAssay AID1626 (SRMLSC, 2009).

Where only a bound is given, the exact number is not on record here.

The test deals with M. tuberculosis H37Rv growth inhibition. Kind of test: M. tuberculosis H37Rv growth inhibitors, H37Rv strain (AID 1626). As to conditions: for IC90: measured here: IC90 against H37Rv; for CC50: measured here: Vero cell cytotoxicity.

A word on the IC90: it is the concentration at which the effect reaches the 90% level. A higher IC90 goes with a need for much substance. `COc1cc(OC)c2cc[nH]c2c1` had a concentration for an effect of 90% (IC90) greater than 100 µM.
By IC50 is commonly meant the concentration needed to halve the response being measured. Usually CC50 stands for the concentration at which the toxic effect on the cells reaches its halfway point. On to `Cc1ccc(-c2[nH]nc(N)c2N=Nc2ccccc2C)cc1`, for which the IC50 is 5.45 µM, the IC90 was 8.36 µM and the 50% cytotoxic concentration (CC50) was greater than 40 µM.
`Cc1cc(N2C3CCC2CC(O)(c2ccc(F)cc2)C3)nc(-c2ccccc2)n1` (stereo not given): the IC50 was 31.6 µM, the IC90 is greater than 100 µM and the CC50 is greater than 40 µM.
The corresponding values for `O=C(Nc1ccc(N2CCN(C(=O)c3ccccc3)CC2)cc1)c1ccc([N+](=O)[O-])o1` are less than 0.195 µM, less than 0.195 µM and 1.63 µM.
The like results for `Cc1nc(SCC(=O)Nc2cc(C)on2)c2c3c(sc2n1)CCCC3` were, in that order, less than 0.195 µM, 13.8 µM and 21 µM.
For `O=C(/C=C/c1ccc2c(c1)OCO2)c1c(O)n(CCc2ccccc2)c(=O)[nH]c1=O`, the IC50 was 6.87 µM, the IC90 was 9.99 µM and the cytotoxic concentration (CC50) amounted to 27.4 µM.
For the compound `O=C(CCSc1ccc(Cl)cc1)c1cccs1`, the IC90 was greater than 100 µM.
`CC(C)c1c(O)nc(SCC(=O)Nc2ccc3c(c2)CCC3)[nH]c1=O`: the IC50 was 32.8 µM and the IC90 is greater than 100 µM.
Consider `Cc1cc(C)c(-c2csc(NC(=O)/C=C/c3cccs3)n2)c(C)c1`, for which the IC50 is 4.66 µM, the concentration for an effect of 90% (IC90) was 8.18 µM and the cytotoxic concentration (CC50) is greater than 40 µM.
The like results for `CCc1ccc(C(=O)CSC2=C(C#N)C(c3ccco3)C(C(C)=O)=C(C)N2)cc1` (stereo not given) were, in that order, 7.81 µM, 23.3 µM and greater than 40 µM.
`Cc1nc(C)c(/C(O)=C/c2nc3ccccc3oc2=O)s1`: the IC50 is less than 0.195 µM and the IC90 was greater than 100 µM.
As to `O=C(/C=C/c1ccco1)Nc1nc(-c2ccccn2)cs1`, the IC50 was 0.446 µM, the 90% effect concentration (IC90) came to 3.54 µM and the half-maximal cytotoxic concentration (CC50) was greater than 40 µM.
Compound `COc1ccc(NC(=O)CSC2=NCCN2)cc1` displayed an IC90 greater than 100 µM.
As to `Cc1cc(SCC(=O)OC/C(O)=C(\C#N)c2nc3ccccc3[nH]2)c(C)cc1Br`, the IC50 was 9.09 µM, the 90% effect concentration (IC90) amounted to 12.6 µM and the CC50 is greater than 40 µM.
Regarding `Nc1ccc(-c2cc(-c3cccc(N)c3)nc(-c3ccccc3)n2)cc1`, the cytotoxic concentration (CC50) was greater than 40 µM.
On to `CC(=O)NC(=O)c1ccc(-c2ccc(Cl)cc2)o1`, for which the IC50 was 11.3 µM and the IC90 was greater than 100 µM.
In the case of `O=C(Nc1nnc(-c2cccs2)o1)c1cccc(Oc2ccccc2)c1`, the IC50 was less than 0.195 µM, the concentration for an effect of 90% (IC90) was determined as 2.67 µM and the 50% cytotoxic concentration (CC50) was 34 µM.
The corresponding values for `C1=C(CCNc2ncnc3c2[nH]c2ccccc23)CCCC1` are 1.52 µM, 1.72 µM and 5.24 µM.
As for `O=C(Nc1ccn(Cc2ccccc2F)n1)c1ccc(COc2ccc(Cl)cc2Cl)o1`, the 50% inhibitory concentration (IC50) is 33.9 µM, the IC90 was greater than 100 µM and the CC50 was greater than 40 µM.
The like results for `CN1Cc2c(N3CCOCC3)nc3sc(C(=O)c4ccc(Br)cc4)c(N)c3c2CC1(C)C` were, in that order, 5.56 µM, 6.26 µM and 10.2 µM.
The corresponding values for `O=C(Nc1nc2ccc(F)cc2s1)c1ccccn1` are less than 0.195 µM, 0.248 µM and 3.01 µM.
For the compound `CC1CCN(c2nc(-c3cccnc3)nc3scc(-c4ccccc4)c23)CC1`, the IC50 is 5.94 µM and the 90% effect concentration (IC90) was 65.3 µM.
Regarding `Cc1ccn2c(Nc3ccccc3)c(-c3ccccn3)nc2c1`, the half-maximal inhibitory concentration (IC50) is 2.88 µM, the 90% effect concentration (IC90) was 3.3 µM and the CC50 was found to be 2.12 µM.
The corresponding values for `O=C1c2cccc3c([N+](=O)[O-])ccc(c23)C(=O)N1c1ccccn1` are 7.34 µM, 10.5 µM and 12.2 µM.
The corresponding values for `COc1ccc(C(=O)Oc2cccc3cccnc23)cc1[N+](=O)[O-]` are 4.12 µM, 4.93 µM and 39 µM.
The like results for `O=C(/C=C/c1ccccc1)Oc1cccc2cccnc12` were, in that order, 7.94 µM, 9.54 µM and 37.2 µM.
Take `COc1cc(CNC23CC4CC(CC(C4)C2)C3)ccc1OCc1ccccc1`: the IC50 was 2.94 µM, the IC90 was determined as 3.35 µM and the half-maximal cytotoxic concentration (CC50) is greater than 40 µM.
The corresponding values for `Cc1ccc(Nc2cc(C)nc(NCc3ccccc3)n2)cc1` are 6.69 µM, 9.45 µM and greater than 40 µM.
Regarding `COc1ccc(Nc2cc(C)nc(-n3nc(C)cc3C)n2)cc1`, the IC50 was 6.15 µM, the 90% effect concentration (IC90) was greater than 100 µM and the half-maximal cytotoxic concentration (CC50) is greater than 40 µM.
The corresponding values for `O=C(NC1CCCCC1)C(c1ccc2ncccc2c1)N(Cc1ccc2c(c1)OCO2)C(=O)c1ccc2c(c1)OCCO2` (stereo not given) are 12.7 µM, greater than 100 µM and greater than 40 µM.
`COc1ccc(Nc2nc(C)c3ccccc3n2)cc1` displayed a CC50 greater than 40 µM.
Consider `COc1ccc(OCC(=O)Nc2ccc3nc(C)sc3c2)cc1`, for which the IC50 is 10.7 µM and the IC90 was greater than 100 µM.
The corresponding values for `CCOc1ccc(NC(C)c2cc(Cl)ccc2O)cc1` (stereo not given) are 10.5 µM and greater than 100 µM.
Turning to `O=C(NCc1ccc(F)cc1)C(=O)Nc1nc(C23CC4CC(CC(C4)C2)C3)cs1`, the CC50 turned out to be 21.4 µM. This lies in the double-digit micromolar range.
As for `Cc1nc(N2CCN(Cc3ccc(Cl)cc3)CC2)c2oc3ccccc3c2n1`, the IC50 was 15.7 µM, the IC90 was found to be 19.8 µM and the half-maximal cytotoxic concentration (CC50) was greater than 40 µM.
The corresponding values for `CN(C)CCCN(C(=O)CCc1ccccc1)c1nc2ccc(Br)cc2s1` are 22.5 µM, 24.2 µM and 16.7 µM.
Turning to `CC(=O)c1sc(NC(=O)c2cc(-c3ccccc3)nn2-c2ccccc2)nc1C`, the 50% inhibitory concentration (IC50) was 27.7 µM, the IC90 was greater than 100 µM and the CC50 is greater than 40 µM.
The corresponding values for `CN(C)CCCNc1cc(C(C)(C)C)nc2c(-c3ccc(Cl)cc3)cnn12` are 0.874 µM, 1.37 µM and 9.25 µM.
The corresponding values for `O=C(Nc1nnc(C2CC2)s1)c1ccccn1` are 2.75 µM, 3.68 µM and 15.6 µM.
Regarding `COc1cc(NC(=O)c2c(F)c(F)c(F)c(F)c2F)c(OC)cc1Cl`, the IC50 is 0.738 µM, the IC90 is greater than 100 µM and the 50% cytotoxic concentration (CC50) is greater than 40 µM.
For the compound `O=C(Oc1cccc(-c2cnc3ccccc3n2)c1)c1ccco1`, the IC50 is 1.39 µM and the IC90 is greater than 100 µM.
Regarding `COc1cc(/C=C/c2ccc3c(Br)cc(Br)c(O)c3n2)ccc1O`, the IC50 was less than 0.195 µM, the IC90 is 0.345 µM and the 50% cytotoxic concentration (CC50) worked out at 14.5 µM.
With `COc1ccc(/C=C/c2cc(-c3ccc(C)cc3)o[n+]2C)cc1`, the IC50 is 3.21 µM, the IC90 was 7.34 µM and the half-maximal cytotoxic concentration (CC50) was greater than 40 µM.
As to `Cc1cc([N+](=O)[O-])ccc1NC(=O)CN1C2CCC1CC(NC(=O)NC13CC4CC(CC(C4)C1)C3)C2` (stereo not given), the 50% inhibitory concentration (IC50) is 3.02 µM, the IC90 came out at 5.59 µM and the cytotoxic concentration (CC50) is greater than 40 µM.
On to `O=S(=O)(Nc1nc2ccccc2nc1Nc1ccc(N2CCOCC2)cc1)c1cc(Cl)ccc1Cl`, for which the IC90 is greater than 100 µM and the CC50 is 22.3 µM.
